Like-named read-outs stand apart in the source and are kept apart here.

Data set [1] has as its system Human prostatic cancer PC-3 cells. The data set is described as follows: In vivo pharmacodynamics, PC-3 subcutaneous xenograft tumor model. Conditions: 50 mg/kg PO BID x 21 days. The procedure: The formulation method of the test substance was the same as in Table 6, and the animal grouping and the dosage regimen were the same as in Table 7.
• Species: mouse • Strain: BALB/c nude mouse • Week-age and weight: 6-8 weeks of age, 18-22 grams of body weight • Sex: male • Supplier: Shanghai Sippr-BK laboratory animal Co. Ltd.
Human prostatic cancer PC-3 cells were cultured in monolayer in vitro, and the culture conditions were F-12K culture medium (supplier: Gibco; article number: 21127-022; manufacturing batch number: 1868870) with 10% fetal bovine serum, 100 U/mL penicillin and 100 μg/mL streptomycin. The culture was performed at 37° C. in 5% CO2. Conventional digestion treatment with pancreatin-EDTA for passage was carried out twice a week. When the cells were in the exponential growth phase, the cells were harvested, counted, and inoculated.
0.1 mL of 10×10^6 PC-3 cells were subcutaneously inoculated into the right-back of each nude mouse. The grouping and administration was started when the average tumor volume reached 100-150 mm^3.
3.3 Tumor measurement, experiment indices, and statistical analysis were the same as MDA-MB-231 model.

Data set [2] concerns Mouse colon cancer MC38 cells. Put plainly: In vivo anti-tumor effect, MC38 mouse colon cancer transplantation tumor model. Conditions: 15, 25 and 50 mg/kg PO BID x 20 days. As to the method: • Species: mouse • Strain: C57BL6 mouse • Week-age and weight: 6-7 weeks of age, 16-20 grams of body weight • Sex: Female • Supplier: Shanghai SLAC Laboratory Animal Co., Ltd.
Mouse colon cancer MC38 cells (OBiO Technology (Shanghai) Corp., Ltd.) were cultured in monolayer in vitro, and the culture conditions were DMEM culture medium (Gibco; article number: 12100) with 10% fetal bovine serum at 37° C. in 5% CO2 in an incubator. Conventional digestion treatment with 0.25% pancreatin-EDTA for passage was carried out. When the cells were in the exponential growth phase and the density was 80%-90%, the cells were harvested, counted, and inoculated. […]
Tumor diameter was measured twice a week with vernier calipers. […]
The tumor inhibition effect of the compound was evaluated by TGI (%) or relative tumor proliferation rate T/C (%). […] The relative tumor volume (RTV) was calculated according to the results of the tumor measurement. The calculation equation was RTV=Vt/V0, where V0 was the average tumor volume measured at the grouping and administration (i.e. D0), and Vt was the average tumor volume at the time of a certain measurement. […]
Statistical analysis was performed using SPSS software based on the tumor volume and the tumor weight at the end of the experiment. The comparison between two groups was analyzed by t-test, and the comparison between three or more groups was analyzed by one-way ANOVA.

Data set [3] in a line: In vivo pharmacokinetics test in rat. To be noted: plasma, male SD rats, crystalline form A used; for AUC(0-inf): read-out: Area under curve (0-inf) AUC0-inf; for AUC(0-t): read-out: Area under curve (0-t) AUC0-last; for half-life: read-out: Half life T1/2 (converted). The procedure:
Male SD rats were used as test animals. The compound of formula (I) was administrated intravenously and intragastrically to rats, and then the drug concentrations in the plasma at different time points were determined by the LC/MS/MS method. The in vivo pharmacokinetic behavior of the compound of formula (I) in rats was studied, and its pharmacokinetic characteristics were evaluated.
1.1 Experiment Drug: The Compound of Formula (I) (the Crystalline Form A)
4 healthy adult male SD rats were divided into 2 groups according to the similar weight principle, with 2 rats in each group. The animals were commercially available from Beijing Weitonglihua Laboratory Animals Ltd., animal production license number: SCXK (Beijing) 2016-0006.
An appropriate amount of the sample was taken, 5% final volume of DMSO was added, and then 95% final volume of 20% HP-β-CD was added. The mixture was ultrasonically stirred to obtain a 0.5 mg/mL clear solution. After filtration, it was used for the intravenous administration.
An appropriate amount of the sample was taken, and dissolved in a 0.5% sodium carboxymethyl cellulose solution. The mixture was ultrasonically stirred to obtain a 1 mg/mL homogeneous suspension, which was used for the intragastric administration.
Four male SD rats were divided into two groups. After fasting overnight, the first group was administered intravenously with the administration volume of 4 mL/kg and the dosage of 2 mg/kg. The second group was administered intragastrically with the administration volume of 10 mL/kg and the dosage of 10 mg/kg.
After the male SD rats were intravenously administrated, 100 μL of blood was taken at each time point of 0.0833, 0.25, 0.5, 1, 2, 4, 6, 8 and 24 hours, and placed in test tubes containing 2 μL of EDTA-K2; and after the SD rats were intragastrically administrated, 100 μL of blood was taken at each time point of 0.0833, 0.25, 0.5, 1, 2, 4, 6, 8 and 24 hours, and placed in test tubes containing 2 μL of EDTA-K2. The tube was centrifuged at 3000 g for 15 minutes to separate the plasma, and the separated plasma was stored at −60° C. Animals could be fed 2 hours after the administration.
The LC/MS/MS method was used to measure the content of the compound to be tested in the plasma after the intravenous and intragastric administration to the rats. The linear range of the method was 2.00-6000 nmol/L; the plasma samples were analyzed after the protein precipitation by acetonitrile treatment.

`Cc1sc2c(c1C)C(c1ccc(Cl)cc1)=N[C@@H](CC(=O)Nc1ccc3c(c1)COC3=O)c1nnc(C)n1-2` [Compound of formula (I)]: the tolerability entry in data set [1] is given as “well tolerated”. Moreover, the tolerance result in data set [2] is on record as “good tolerance”. Further, the Vd in data set [3] (intravenous, 2 mg/kg, read-out: Apparent distribution Vdss) was 1.48 L/kg. Besides, in data set [3] (intravenous, 2 mg/kg), the AUC(0-inf) is 2.22 µM·h, the AUC(0-t) was 2.21 µM·h and the half-life is 0.683 h. Moreover, the clearance in data set [3] (intravenous, 2 mg/kg, read-out: Clearance rate Cl) was 28.3 mL/min/kg. For the same molecule, in data set [3] (po, intragastric, 10 mg/kg), the bioavailability stood at 29.3%, the AUC(0-inf) came out at 3.25 µM·h, the AUC(0-t) worked out at 3.22 µM·h and the half-life was 1.01 h. Moreover, the Cmax in data set [3] (po, intragastric, 10 mg/kg, read-out: Drug concentration in blood Cmax) was 1160 nM. Moreover, the Tmax in data set [3] (po, intragastric, 10 mg/kg, read-out: Time to peak Tmax) turned out to be 1 h.

(Values after US12344620B2, “BRD4 inhibitor compound in solid form and preparation method therefor and use thereof” (CSPC ZHONGQI PHARMACEUTICAL TECHNOLOGY (SHIJIAZHUANG) CO., …, priority 2019, dated 2025).)
